# According to article PMC5306220 (European Journal of Clinical Pharmacology, 2016):
# Key:
# [1] = tested on: blood pressure; settings: patients with T2DM; cited from earlier work
# [2] = Plasma and urine pharmacokinetics of alogliptin after a single oral dose (LC-MS/MS, noncompartmental)
# [3] = Population PK/PD model fitted to study data: PK parameter estimates; assay type: in vivo, human; settings: PK/PD model typical value
# Excerpt: To bridge the adult and pediatric PK, the PK model included weight as an initial covariate on clearance and volume of distribution parameters, as shown in the following equation: Pi=Ppop⋅WTi/WTreference^b⋅e^ηi
# [4] = Safety: treatment-emergent adverse events, laboratory tests, vital signs, ECG;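 also: dosing after fasting overnight (8 h minimum), clinic stay to day 2, outpatient visits on days 3 and 4, and a telephone check for adverse events about 14 days after study exit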
# [5] = pediatric subjects, 12.5-mg dose vs adults 25 mg
# [6] = 12.5 mg single dose, Group 1 10 to <14 years, N = 5
# [7] = 12.5 mg single dose, Group 2 14 to <18 years, N = 8
# [8] = 25 mg single dose, Group 1 10 to <14 years, N = 4
# [9] = 25 mg single dose, Group 2 14 to <18 years, N = 7
# [10] = 25 mg single dose, Group 3 Adults, N = 22
# [11] = entire study period, all 46 subjects
smiles,measurement,setting,value
Cn1c(=O)cc(N2CCC[C@@H](N)C2)n(Cc2ccccc2C#N)c1=O [alogliptin],effect on blood pressure,[1],lower blood pressure
same,mean CL/F higher in all pediatric subjects compared with adult subjects,[2]; groups 1 and 2 vs adults,up to 37%
same,Tmax,"[2]; human, plasma, po",2 to 4 h
same,correlation between dose-normalized AUC0-inf and creatinine clearance,[2]; pediatric and adult subjects,no correlations were observed
same,mean AUC0-inf lower than in adults,[2]; [5],54%
same,mean Cmax lower than in adults,[2]; [5],58%
same,mean AUC0-inf lower than in adults receiving the 25-mg dose,"[2]; pediatric subjects, 25-mg dose",23%
same,mean Cmax lower than in adults receiving the 25-mg dose,"[2]; pediatric subjects, 25-mg dose",26%
same,Absorption rate constant [KA] in adult subjects,[3]; adult subjects,1.66 h⁻¹
same,Oral clearance [CL/F] in adult subjects,"[3]; adult subjects, reference body weight 70 kg",13.0 L/h
same,Absorption rate constant [KA] in pediatric subjects,[3]; pediatric subjects,0.590 h⁻¹
same,Oral clearance [CL/F] in pediatric subjects,"[3]; pediatric subjects, reference body weight 70 kg",14.4 L/h
same,Vd/F,"[3]; human, plasma, oral, read-out: Central volume of distribution [V2/F]",125 L
same,"Mild TEAEs: Subjects, N (%)",[4]; [6],3 (60.0)
same,"Moderate TEAEs: Subjects, N (%)",[4]; [6],0
same,"Not related TEAEs: Subjects, N (%)",[4]; [6],1 (20.0)
same,"Related TEAEs: Subjects, N (%)",[4]; [6],2 (40.0)
same,"Severe TEAEs: Subjects, N (%)",[4]; [6],0
same,"TEAEs: Subjects, N (%)",[4]; [6],3 (60.0)
same,"Mild TEAEs: Subjects, N (%)",[4]; [7],5 (62.5)
same,"Moderate TEAEs: Subjects, N (%)",[4]; [7],0
same,"Not related TEAEs: Subjects, N (%)",[4]; [7],3 (37.5)
same,"Related TEAEs: Subjects, N (%)",[4]; [7],2 (25.0)
same,"Severe TEAEs: Subjects, N (%)",[4]; [7],0
same,"TEAEs: Subjects, N (%)",[4]; [7],5 (62.5)
same,"Mild TEAEs: Subjects, N (%)",[4]; [8],1 (25.0)
same,"Moderate TEAEs: Subjects, N (%)",[4]; [8],0
same,"Not related TEAEs: Subjects, N (%)",[4]; [8],1 (25.0)
same,"Related TEAEs: Subjects, N (%)",[4]; [8],0
same,"Severe TEAEs: Subjects, N (%)",[4]; [8],0
same,"TEAEs: Subjects, N (%)",[4]; [8],1 (25.0)
same,"Mild TEAEs: Subjects, N (%)",[4]; [9],2 (28.6)
same,"Moderate TEAEs: Subjects, N (%)",[4]; [9],0
same,"Not related TEAEs: Subjects, N (%)",[4]; [9],2 (28.6)
same,"Related TEAEs: Subjects, N (%)",[4]; [9],0
same,"Severe TEAEs: Subjects, N (%)",[4]; [9],0
same,"TEAEs: Subjects, N (%)",[4]; [9],2 (28.6)
same,"Mild TEAEs: Subjects, N (%)",[4]; [10],7 (31.8)
same,"Moderate TEAEs: Subjects, N (%)",[4]; [10],1 (4.5)
same,"Not related TEAEs: Subjects, N (%)",[4]; [10],4 (18.2)
same,"Related TEAEs: Subjects, N (%)",[4]; [10],5 (22.7)
same,"Severe TEAEs: Subjects, N (%)",[4]; [10],1 (4.5)
same,"TEAEs: Subjects, N (%)",[4]; [10],9 (40.9)
same,AEs leading to study drug discontinuation,[4]; entire study,No AEs led to study drug discontinuation
same,abnormal ECG results reported as TEAE,[4]; entire study,No abnormal ECG result was reported as a TEAE
same,deaths,[4]; entire study,no deaths occurred
same,number of TEAEs,[4]; [11],36
same,subjects who experienced TEAEs,[4]; [11],20
same,tolerability,"[4]; single doses 12.5 and 25 mg, pediatric and adult subjects",well tolerated
